Data set [1] has as its system E. Coli, P. aeruginosa, salmonella typhii, and kiebsiella. Kind of data set: MIC of disinfectants by agar dilution. It counts as cell-based. The following applies: individually determined. How it is done: In addition to the foregoing, E. Coli, P. aeruginosa, salmonella typhii, and kiebsiella were tested using selective media and biochemical means. Disk diffusion methods were used testing disinfectant resistance by measuring zones of inhibition after eighteen hours of incubation. MICs of disinfectants were determined by agar dilution. […] The preferred determined exposure is actually 4× of Glut to BAK as determined by log reduction effectiveness. This was supported by running an MIC (inhibitory) versus a MBC (bactericidal) test. Using the McFarland standard on E. coli, with the combination Glut/BAK, the result was that the bactericidal amount was 2× the inhibitory amount in ppm. This was done via serial dilutions on media Nutrient Broth.

A further data set deals with biofilm. The conditions noted are these: Flow Cytometry, MetaMorph image analysis; cited from earlier work.
For data set [2], the system named is biofilm communities of E. faecalis. Briefly: Biofilm formation / LIVE/DEAD staining assay on E. faecalis biofilm communities. It counts as cell-based. The following applies: components tested separately. The source says: In experiments, biofilm communities of E. faecalis were created following the techniques of Bergenholtz and Chavez, J. Endo. Coating (2010), using the present formulation. […] This was confirmed by a staining LIVE/DEAD assay. […] Clearly, Glutaraldehyde alone is not as effective as BAK, nor vice versa. Together in “proper ratio” the formula is outstanding at reducing biofilm as well as killing the necessary bacteria. This synergy was confirmed by the fractional inhibitory concentration index (FICI). The FICI for a synergistic mixture, using checkerboard, gave the combination of Glut/BAK a 0.35 FICI which is inhibitory. [Greene et al., App Env Micro Vol 72: 5254-5259 (2006)]. Mixtures according to this test are synergistic when the lowest FICI is below 0.8 therefore giving credence to the present concept. Synergy of Glut/BAK is known but has not been fully tested since the tested material has been Glut/Quats (dual chains) and not BAK. […] The present determination of 4:1 (Glut:BAK), FICI independently determined, corrects this missing component to make an effective formulation. Strong synergy has been shown between Glut/BAK (FICI 0.35). The biofilm reduction/penetration ability of BAK combined with the broad spectrum biocidal activities of Glut enable and achieve, at lower concentrations, due to synergy, the destruction of the SRBs in oil/gas as well the pertinent bacteria in health care.
This was confirmed by the staining LIVE/DEAD assay. […] Glutaraldehyde alone is not as effective as BAK. Together in proper ratio the formula is outstanding at reducing biofilm as well as killing the necessary bacteria, and provides an excellent synergistic complimentary approach to eliminating the bacterial/biofilm problem.

Data set [3] can be described thus: Check of Glutaraldehyde content when combined with BAK at the CMC. It counts as physicochemical. The source says: The multi-level mechanism of action is as follows. The Glutaraldehyde produces an inherent bacteriocidal effect. BAK lowers surface tension and thus aids in the spread of the Glut on the biofilm covered surface and serves as a binding agent between the Glut and the application surface. The BAK spreads the Glutaraldehyde on the cell surface and increases depth of penetration. Thus, the BAK and Glutaraldehyde are mutually synergistic in attacking and achieving the desired kill effect. Because BAK is a quaternary ammonium salt one would suppose that it would react adversely with the Glutaraldehyde and cause aldehyde consumption. For this reason it became mandatory to check the Glutaraldehyde content and determine if there was a decrease at the CMC. […] This is likely correct due to the small BAK concentration necessary to reach the CMC. […] As a matter of fact it acted synergistically to enhance cidal effects due to its surfactant action.

Data set [4] can be described thus: Pendant drop surface tension measurement (Tate's equation). It is filed as physicochemical. The conditions noted are these: pendant drop method, ten drops. The source says: BAK's ability to repel biofilm formation as well as penetrate is based upon the physico/chemical and steric changes provoked by hydrophobic changes and electrostatic repulsion. This is due to the positively charged nitrogen that reacts with the acidic phospholipids in the cell membrane. This is the area of penetration bringing along the Glut (cidal component) increasing surface pressure which decreases the adhesive potential by affecting the osmoregularity of bacterial adhesins. […] The BAK molecules at the proper concentration are saturated or at the critical micelle concentration (CMC). When the BAK is above the CMC and the surface tension is constant the best wetting properties are achieved. The stated BAK concentration is important since low doses can actually stimulate metabolic reactions as well as cause resistance. Again the proper importance of “concentration ratios” develops the full synergistic effect. In an example the pendant drop method was used to determine surface tension activity of BAK. Ten drops were measured with a precision balance to calculate surface energy. Tate's equation was used for calculation. It was concluded that the surface tension was reduced by approximately 53%. This illustrates that the addition of the BAK to the formulation permits a better spreading of the solution.

For `O=CCCCC=O` [Glutaraldehyde], the MIC in data set [1] amounted to 0.3%. Besides, the penetration of biofilm entry in the data set with biofilm is recorded as “little or no penetration of biofilm”. Besides, in data set [2], the “kill (LIVE/DEAD staining)” value worked out at 45%. In data set [3], the “reduction in Glutaraldehyde content when combined with BAK” value is recorded as “did not show any reduction”.
Regarding benzalkonium chloride [BAK], the MIC in data set [1] was found to be 0.13%. Moreover, the surface tension reduction entry in data set [4] was “approximately 53%”. Further, the penetration of biofilm entry with biofilm is recorded as “peripheral penetration followed by inward migration”. In addition, in data set [2], the bio-volume reduction result is “over 70 fold” and the “kill (LIVE/DEAD staining)” value is on record as “less so”.

These data come from patent US9955688B2, “Biocidal aldehyde composition” (priority 2015, dated 2018).
